Assay results as given in patent US11000033B2, “Ketone or oxime compound, and herbicide” (NISSAN CHEMICAL CORPORATION, priority 2014, dated 2021).

How the values were obtained:
Assay type in all cases: in vivo
[1] = tested on: Echinochloa oryzacola Vasing.; assay: Test Example 1: herbicidal activity, application before weed generation in submerged conditions (symbol A); settings: application herbicide amount 320 g/ha
Procedure, shortened: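 Weeds are sown into submerged alluvial soil alongside transplanted 2.5-leaf rice, and the compound, as an emulsion diluted to a set rate, is applied onto the water before emergence. Rating on the 0–5 herbicidal-ratio scale follows 3 weeks of greenhouse growth at 25–30 °C.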

Scirpus juncoides = assay: Test Example 2: herbicidal activity, application during weed generation in submerged conditions (symbol B); settings: Table 23; application herbicide amount 320 g/ha; grade 0-5 by criteria of Test Example 1
Procedure, shortened: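 Flooded-soil post-emergence test: emulsion of compound, water-diluted to target rate, applied to paddy water surface at 1–2 leaf stage of mixed-sown weeds (alluvial soil, 4 cm water, 25–30° C. greenhouse); visual rating 3 weeks after application.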

[2] = tested on: Echinochloa crus-galli var. crus-galli; assay: Test Example 4: herbicidal effect by soil treatment (symbol H); settings: 320 g/ha
Procedure, shortened: (§1)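 Seeds were sown in sterilized diluvial soil, covered with about 1.5 cm of soil, and the soil surface was sprayed with a water-diluted emulsion of the compound at a predetermined rate. Plants grew in a greenhouse at 25° C. to 30° C.; effects were scored visually 3 weeks after application.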

Amaranthus retroflexus [3] = assay: Test Example 4: herbicidal effect by soil treatment (symbol N); settings: 320 g/ha
Procedure, shortened: as §1

Galium spurium [4] = assay: Test Example 4: herbicidal effect by soil treatment (symbol Q); settings: 320 g/ha
Procedure, shortened: as §1

corn = assay: Test Example 4: effect on crop by soil treatment (symbol c); settings: 320 g/ha
Procedure, shortened: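 Steps: fill box with sterilized diluvial soil; sow seed spot-like; cover with ~1.5 cm soil; grow in greenhouse (25° C. to 30° C.).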

rapeseed = assay: Test Example 4: effect on crop by soil treatment (symbol g); settings: 320 g/ha
Procedure, shortened: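 Seeds were sown in spots on sterilized diluvial soil in a plastic box and covered with about 1.5 cm of soil. Plants were then grown in a greenhouse at 25° C. to 30° C.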

Avena fatua = assay: Test Example 5: herbicidal effect by foliage application, plastic box (symbol I); settings: 320 g/ha, 3 weeks after application
Procedure, shortened: (§2)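 After sowing into sterilized diluvial soil and growing two weeks under glass at 25° C. to 30° C., seedlings receive a uniform foliar spray of diluted emulsion. Damage is judged visually three weeks on.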

Lolium multiflorum Lam. = assay: Test Example 5: herbicidal effect by foliage application, plastic box (symbol K); settings: 320 g/ha, 3 weeks after application
Procedure, shortened: as §2

Apera spica-venti = assay: Test Example 5: herbicidal effect by foliage application, plastic box (symbol L); settings: 320 g/ha, 3 weeks after application
Procedure, shortened: as §2

Abutilon theophrasti = assay: Test Example 5: herbicidal effect by foliage application, plastic box (symbol M); settings: 320 g/ha, 3 weeks after application
Procedure, shortened: as §2

Amaranthus retroflexus [5] = assay: Test Example 5: herbicidal effect by foliage application, plastic box (symbol N); settings: 320 g/ha, 3 weeks after application
Procedure, shortened: as §2

Stellaria media = assay: Test Example 5: herbicidal effect by foliage application, plastic box (symbol P); settings: 320 g/ha, 3 weeks after application
Procedure, shortened: as §2

Galium spurium [6] = assay: Test Example 5: herbicidal effect by foliage application, plastic box (symbol Q); settings: 320 g/ha, 3 weeks after application
Procedure, shortened: as §2

Veronica persica = assay: Test Example 5: herbicidal effect by foliage application, plastic box (symbol R); settings: 320 g/ha, 3 weeks after application
Procedure, shortened: as §2

CC(CC1CC(O)=C(c2c(C)cc(C)cc2C)C1=O)=NOCc1ccc(C(F)(F)F)cc1 (stereo not drawn) [1-138]
Herbicidal effect grade, A: Echinochloa oryzacola Vasing. [1]: 5 (Herbicidal ratio of 90% or more (almost completely withered))
Herbicidal effect grade, B: Scirpus juncoides (Scirpus juncoides): 4 (Herbicidal ratio of 70% or higher and lower than 90%)
H: Echinochloa crus-galli var. crus-galli, herbicidal effect grade [2]: 5 (Herbicidal ratio of 90% or more (almost completely withered))
N: Amaranthus retroflexus, herbicidal effect grade (Amaranthus retroflexus [3]): 0 (Herbicidal ratio of 5% or lower (almost no effect))
Q: Galium spurium, herbicidal effect grade (Galium spurium [4]): 0 (Herbicidal ratio of 5% or lower (almost no effect))
c: corn, effect grade on crop (corn): 0 (Herbicidal ratio of 5% or lower (almost no effect))
g: rapeseed, effect grade on crop (rapeseed): 0 (Herbicidal ratio of 5% or lower (almost no effect))
I: Avena fatua, herbicidal effect (criteria 0-5) (Avena fatua): 5 (Herbicidal ratio of 90% or more (almost completely withered))
K: Lolium multiflorum Lam., herbicidal effect (criteria 0-5) (Lolium multiflorum Lam.): 5 (Herbicidal ratio of 90% or more (almost completely withered))
L: Apera spica-venti, herbicidal effect (criteria 0-5) (Apera spica-venti): 5 (Herbicidal ratio of 90% or more (almost completely withered))
M: Abutilon theophrasti, herbicidal effect (criteria 0-5) (Abutilon theophrasti): 3 (Herbicidal ratio of 40% or higher and lower than 70%)
N: Amaranthus retroflexus, herbicidal effect (criteria 0-5) (Amaranthus retroflexus [5]): 0 (Herbicidal ratio of 5% or lower (almost no effect))
P: Stellaria media, herbicidal effect (criteria 0-5) (Stellaria media): 1 (Herbicidal ratio of 5% or higher and lower than 20%)
Q: Galium spurium, herbicidal effect (criteria 0-5) (Galium spurium [6]): 3 (Herbicidal ratio of 40% or higher and lower than 70%)
R: Veronica persica, herbicidal effect (criteria 0-5) (Veronica persica): 3 (Herbicidal ratio of 40% or higher and lower than 70%)

CCC(Oc1ccc2ncc(Br)cc2c1)C(=O)OC1=C(c2c(C)cc(C)cc2C)C(=O)C(CC(C)=NOC)C1 (stereo not drawn) [1-140]
Herbicidal effect grade, A: Echinochloa oryzacola Vasing. [1]: 5 (Herbicidal ratio of 90% or more (almost completely withered))
Herbicidal effect grade, B: Scirpus juncoides (Scirpus juncoides): 5 (Herbicidal ratio of 90% or more (almost completely withered))
H: Echinochloa crus-galli var. crus-galli, herbicidal effect grade [2]: 5 (Herbicidal ratio of 90% or more (almost completely withered))
N: Amaranthus retroflexus, herbicidal effect grade (Amaranthus retroflexus [3]): 5 (Herbicidal ratio of 90% or more (almost completely withered))
Q: Galium spurium, herbicidal effect grade (Galium spurium [4]): 0 (Herbicidal ratio of 5% or lower (almost no effect))
c: corn, effect grade on crop (corn): 4 (Herbicidal ratio of 70% or higher and lower than 90%)
g: rapeseed, effect grade on crop (rapeseed): 4 (Herbicidal ratio of 70% or higher and lower than 90%)
I: Avena fatua, herbicidal effect (criteria 0-5) (Avena fatua): 5 (Herbicidal ratio of 90% or more (almost completely withered))
K: Lolium multiflorum Lam., herbicidal effect (criteria 0-5) (Lolium multiflorum Lam.): 5 (Herbicidal ratio of 90% or more (almost completely withered))
L: Apera spica-venti, herbicidal effect (criteria 0-5) (Apera spica-venti): 5 (Herbicidal ratio of 90% or more (almost completely withered))
M: Abutilon theophrasti, herbicidal effect (criteria 0-5) (Abutilon theophrasti): 4 (Herbicidal ratio of 70% or higher and lower than 90%)
N: Amaranthus retroflexus, herbicidal effect (criteria 0-5) (Amaranthus retroflexus [5]): 3 (Herbicidal ratio of 40% or higher and lower than 70%)
P: Stellaria media, herbicidal effect (criteria 0-5) (Stellaria media): 3 (Herbicidal ratio of 40% or higher and lower than 70%)
Q: Galium spurium, herbicidal effect (criteria 0-5) (Galium spurium [6]): 2 (Herbicidal ratio of 20% or higher and lower than 40%)
R: Veronica persica, herbicidal effect (criteria 0-5) (Veronica persica): 3 (Herbicidal ratio of 40% or higher and lower than 70%)
